Results taken from ChEMBL document CHEMBL3526059, “Reversible inhibition of human carboxylesterases by acyl glucuronides” (Drug Metab Dispos, 2013).

What was measured:
[1] = Half life in phosphate buffer at pH 7.4 by HPLC analysis; type: physicochemical
Liver carboxylesterase 1 [2] = biological target: T1, Liver carboxylesterase 1 (Homo sapiens, UniProt P23141); assay: Reversible inhibition of human CES1 assessed as hydrolysis of 4NPA to 4NP
T1 sequence (P23141 whole entry): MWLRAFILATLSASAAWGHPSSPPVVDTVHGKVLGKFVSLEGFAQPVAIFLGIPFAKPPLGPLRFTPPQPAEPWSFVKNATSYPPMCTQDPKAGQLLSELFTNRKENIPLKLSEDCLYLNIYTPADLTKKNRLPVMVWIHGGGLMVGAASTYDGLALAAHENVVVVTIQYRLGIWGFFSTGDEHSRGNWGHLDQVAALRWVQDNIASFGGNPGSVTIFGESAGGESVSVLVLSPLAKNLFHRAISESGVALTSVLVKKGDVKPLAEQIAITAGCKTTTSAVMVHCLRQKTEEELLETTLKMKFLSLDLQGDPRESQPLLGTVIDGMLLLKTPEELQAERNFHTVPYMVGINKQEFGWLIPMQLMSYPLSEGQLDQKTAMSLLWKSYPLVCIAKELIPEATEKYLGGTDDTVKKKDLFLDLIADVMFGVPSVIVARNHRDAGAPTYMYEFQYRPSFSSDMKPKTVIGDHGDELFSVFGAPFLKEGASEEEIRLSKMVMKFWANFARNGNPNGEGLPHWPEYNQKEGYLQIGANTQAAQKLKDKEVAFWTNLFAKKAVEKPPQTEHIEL

Cocaine esterase [3] = biological target: T2, Cocaine esterase (Homo sapiens, UniProt O00748); assay: Inhibition of human CES2 assessed as hydrolysis of 4NPA to 4NP at 1 mM by spectrophotometric analysis; details: 1000 µM
T2 sequence (O00748 whole entry): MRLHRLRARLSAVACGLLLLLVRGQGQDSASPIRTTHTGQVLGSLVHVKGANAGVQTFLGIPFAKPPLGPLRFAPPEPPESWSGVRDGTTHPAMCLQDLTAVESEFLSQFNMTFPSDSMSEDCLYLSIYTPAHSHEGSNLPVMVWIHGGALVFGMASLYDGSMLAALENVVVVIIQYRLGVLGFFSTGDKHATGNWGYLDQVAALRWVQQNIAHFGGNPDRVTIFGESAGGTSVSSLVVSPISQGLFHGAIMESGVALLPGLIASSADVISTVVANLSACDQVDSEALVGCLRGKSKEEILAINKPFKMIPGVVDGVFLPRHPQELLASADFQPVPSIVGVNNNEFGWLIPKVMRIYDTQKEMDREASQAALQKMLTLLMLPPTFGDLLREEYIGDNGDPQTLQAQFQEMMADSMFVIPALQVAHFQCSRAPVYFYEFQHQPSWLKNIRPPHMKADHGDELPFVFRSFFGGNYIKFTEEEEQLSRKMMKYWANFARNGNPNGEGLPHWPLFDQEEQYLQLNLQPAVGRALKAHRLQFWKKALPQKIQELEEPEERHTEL

[4] = Half life in phosphate buffer at 10 uM at pH 7.4 by LC/TOF-MS analysis; type: physicochemical
[5] = Half life of the compound; type: physicochemical
Liver carboxylesterase 1 [6] = biological target: T1, Liver carboxylesterase 1; assay: Inhibition of human CES1 assessed as hydrolysis of 4NPA to 4NP at 1 mM by spectrophotometric analysis; details: 1000 µM
Liver carboxylesterase 1 [7] = biological target: T1, Liver carboxylesterase 1; assay: Time-dependent inhibition of human CES1 assessed as hydrolysis of 4NPA to 4NP preincubated for 60 mins followed by 4NPA addition
Liver carboxylesterase 1 [8] = biological target: T1, Liver carboxylesterase 1; assay: Activity of human CES1 assessed as loss of 1-O-acyl glucuronide at 100 uM measured at 30 mins by LC/TOF-MS analysis relative to control; type: ADME; details: 0.5 h
Liver carboxylesterase 1 [9] = biological target: T1, Liver carboxylesterase 1; assay: Time-dependent inhibition of human CES1 assessed as hydrolysis of 4NPA to 4NP preincubated for 10 mins followed by 4NPA addition
Liver carboxylesterase 1 [10] = biological target: T1, Liver carboxylesterase 1; assay: Activity of human CES1 assessed as loss of 1-O-acyl glucuronide at 100 uM measured at 10 mins by LC/TOF-MS analysis relative to control; type: ADME
Liver carboxylesterase 1 [11] = biological target: T1, Liver carboxylesterase 1; assay: Time-dependent inhibition of human CES1 assessed as hydrolysis of 4NPA to 4NP preincubated for 30 mins followed by 4NPA addition
Liver carboxylesterase 1 [12] = biological target: T1, Liver carboxylesterase 1; assay: Activity of human CES1 assessed as loss of 1-O-acyl glucuronide at 100 uM measured at 60 mins by LC/TOF-MS analysis relative to control; type: ADME; details: 1 h
[13] = Half life in buffer at pH 7.4 by 1H NMR spectroscopic analysis in presence of human urine; type: physicochemical; details: buffer with human urine
Cocaine esterase [14] = biological target: T2, Cocaine esterase; assay: Inhibition of human CES2

Compound | Ki (Liver carboxylesterase 1 [2]) [µM] | inhibition (INH) (Cocaine esterase [3]) | half-life at 10 µM [4] [h] | further results
CC(C)Cc1ccc([C@@H](C)C(=O)O[C@@H]2O[C@H](C(=O)O)[C@@H](O)[C@H](O)[C@H]2O)cc1 | – | – | – | half-life [1]: 1.8 h
CC(C)Cc1ccc([C@H](C)C(=O)O[C@@H]2O[C@H](C(=O)O)[C@@H](O)[C@H](O)[C@H]2O)cc1 | – | – | – | half-life [1]: 3.3 h
O=C(O)[C@H]1O[C@@H](OC(=O)[C@H](c2ccccc2Cl)N2CCc3sccc3C2)[C@H](O)[C@@H](O)[C@@H]1O | 24.8 | Not Active | 5.02 | –
CCCC(CCC)C(=O)O[C@@H]1O[C@H](C(=O)O)[C@@H](O)[C@H](O)[C@H]1O | – | Not Active | 15.2 | half-life [5]: 60 h; inhibition (INH) (Liver carboxylesterase 1 [6]): Not Active
COc1ccc2cc([C@@H](C)C(=O)O[C@@H]3O[C@H](C(=O)O)[C@@H](O)[C@H](O)[C@H]3O)ccc2c1 | 468 | Not Active | 0.996 | –
COc1ccc2cc([C@H](C)C(=O)O[C@@H]3O[C@H](C(=O)O)[C@@H](O)[C@H](O)[C@H]3O)ccc2c1 | 707 | Not Active | 1.77 | –
O=C(Cc1ccccc1Nc1c(Cl)cccc1Cl)O[C@@H]1O[C@H](C(=O)O)[C@@H](O)[C@H](O)[C@H]1O | 4.32 | Not Active | 0.537 | IC50 (Liver carboxylesterase 1 [7]): 2.27 µM; Activity (Liver carboxylesterase 1 [8]): 50%; IC50 (Liver carboxylesterase 1 [9]): 2.51 µM; Activity (Liver carboxylesterase 1 [10]): 20%; IC50 (Liver carboxylesterase 1 [11]): 1.96 µM; Activity (Liver carboxylesterase 1 [12]): 75%
O=C(O[C@@H]1O[C@H](C(=O)O)[C@@H](O)[C@H](O)[C@H]1O)c1cn(Cc2c(F)cccc2F)nn1 | – | Not Active | 0.252 | inhibition (INH) (Liver carboxylesterase 1 [6]): Not Active
CC(C)Cc1ccc(C(C)C(=O)O[C@@H]2O[C@H](C(=O)O)[C@@H](O)[C@H](O)[C@H]2O)cc1 (mixture of isomers) | 355 | Not Active | 3.67 | half-life [13]: 3.5 h
CCCC(CCC)C(=O)O [VALPROIC ACID] | – | – | – | Ki (Cocaine esterase [14]): 7900 µM
